Consider 3 molecules from ChEMBL document CHEMBL5696442, “Discovery of type II inhibitors of TGFβ-activated kinase 1 (TAK1) and mitogen-activated protein kinase kinase kinase kinase 2 (MAP4K2)” (J Med Chem, 2015).

Calls of active or inactive are those of the source. The rule behind the calls is not given here.

A word on the inhibition: it is the change of the read-out against control, counted positive when it falls.

Assay [1] addresses T1, NUAK family SNF1-like kinase 1 (Homo sapiens) (UniProt O60285).
T1 sequence (whole entry): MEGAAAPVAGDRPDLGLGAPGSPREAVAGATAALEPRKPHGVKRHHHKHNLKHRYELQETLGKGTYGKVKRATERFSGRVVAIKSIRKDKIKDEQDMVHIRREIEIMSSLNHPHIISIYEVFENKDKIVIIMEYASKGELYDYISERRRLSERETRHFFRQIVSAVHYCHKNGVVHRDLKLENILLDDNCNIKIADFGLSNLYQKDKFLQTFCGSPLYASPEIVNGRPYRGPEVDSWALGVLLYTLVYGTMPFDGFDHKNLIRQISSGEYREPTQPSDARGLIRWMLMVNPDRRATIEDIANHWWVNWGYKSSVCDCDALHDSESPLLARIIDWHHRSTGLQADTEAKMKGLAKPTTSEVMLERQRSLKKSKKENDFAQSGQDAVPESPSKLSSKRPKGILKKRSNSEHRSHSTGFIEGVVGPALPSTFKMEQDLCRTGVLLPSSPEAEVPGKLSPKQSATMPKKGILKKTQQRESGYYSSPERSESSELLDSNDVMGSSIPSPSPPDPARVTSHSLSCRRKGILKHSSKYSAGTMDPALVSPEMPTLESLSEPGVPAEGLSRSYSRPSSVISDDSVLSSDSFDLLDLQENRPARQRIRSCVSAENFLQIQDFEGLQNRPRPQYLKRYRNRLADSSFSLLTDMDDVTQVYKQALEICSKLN
Kind of assay: Inhibition of ARK5 (unknown origin) at 1 uM by Ambit Kinomescan binding assay relative to control.

Assay [2] has as its target T2, Serine/threonine-protein kinase LATS1 (Homo sapiens) (UniProt O95835).
T2 sequence (whole entry): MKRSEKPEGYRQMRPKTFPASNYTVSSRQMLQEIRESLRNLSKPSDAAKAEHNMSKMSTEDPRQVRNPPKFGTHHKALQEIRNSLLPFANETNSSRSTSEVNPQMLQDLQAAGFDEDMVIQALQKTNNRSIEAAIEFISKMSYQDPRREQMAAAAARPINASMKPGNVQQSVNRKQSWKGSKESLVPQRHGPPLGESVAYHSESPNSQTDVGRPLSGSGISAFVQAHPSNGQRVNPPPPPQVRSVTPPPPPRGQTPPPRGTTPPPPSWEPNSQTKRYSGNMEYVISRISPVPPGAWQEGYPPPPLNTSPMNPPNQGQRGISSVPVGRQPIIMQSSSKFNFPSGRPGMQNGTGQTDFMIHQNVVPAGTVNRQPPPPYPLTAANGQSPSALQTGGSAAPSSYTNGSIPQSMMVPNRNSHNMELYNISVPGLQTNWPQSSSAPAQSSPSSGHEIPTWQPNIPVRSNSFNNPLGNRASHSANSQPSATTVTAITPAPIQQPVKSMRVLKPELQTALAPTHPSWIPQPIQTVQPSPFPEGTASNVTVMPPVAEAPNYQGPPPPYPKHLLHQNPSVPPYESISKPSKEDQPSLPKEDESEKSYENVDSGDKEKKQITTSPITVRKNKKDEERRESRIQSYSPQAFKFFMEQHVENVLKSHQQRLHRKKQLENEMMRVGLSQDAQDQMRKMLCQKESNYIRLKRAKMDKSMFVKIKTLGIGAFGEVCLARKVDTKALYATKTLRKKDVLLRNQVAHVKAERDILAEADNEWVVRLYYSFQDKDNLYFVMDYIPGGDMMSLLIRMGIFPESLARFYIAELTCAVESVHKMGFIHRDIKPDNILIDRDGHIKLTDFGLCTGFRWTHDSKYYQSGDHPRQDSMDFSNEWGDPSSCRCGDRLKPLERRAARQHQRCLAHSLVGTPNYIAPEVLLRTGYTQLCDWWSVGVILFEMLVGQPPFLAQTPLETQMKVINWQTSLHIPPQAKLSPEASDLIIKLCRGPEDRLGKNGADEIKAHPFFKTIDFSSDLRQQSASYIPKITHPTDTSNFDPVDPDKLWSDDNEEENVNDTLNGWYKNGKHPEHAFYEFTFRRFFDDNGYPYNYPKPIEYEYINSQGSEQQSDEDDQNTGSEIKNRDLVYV
Kind of assay: Inhibition of LATS1 (unknown origin) at 1 uM by Ambit Kinomescan binding assay relative to control.

In assay [3] the target is Casein kinase I isoform delta (Homo sapiens) (UniProt P48730). Kind of assay: Inhibition of CK1delta Lys2 labeling site in human A-375 cells at 5 uM by KiNativ Profiling analysis relative to control. The format is cell-based.
Sequence of Casein kinase I isoform delta (Homo sapiens) (P48730 whole entry, looked up, canonical isoform): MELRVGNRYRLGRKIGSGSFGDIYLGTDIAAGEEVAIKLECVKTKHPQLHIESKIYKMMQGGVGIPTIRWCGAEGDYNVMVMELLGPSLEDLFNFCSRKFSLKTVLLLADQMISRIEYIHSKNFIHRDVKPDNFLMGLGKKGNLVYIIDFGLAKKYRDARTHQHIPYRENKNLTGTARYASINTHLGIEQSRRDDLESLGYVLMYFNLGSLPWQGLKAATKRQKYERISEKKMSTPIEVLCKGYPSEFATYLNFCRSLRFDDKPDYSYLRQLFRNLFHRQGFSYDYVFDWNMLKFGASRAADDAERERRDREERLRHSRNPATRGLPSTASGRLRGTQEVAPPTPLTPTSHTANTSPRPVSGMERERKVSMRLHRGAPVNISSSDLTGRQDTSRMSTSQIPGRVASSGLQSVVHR
In assay [4] the target is Phosphatidylinositol 4-kinase beta (Homo sapiens) (UniProt Q9UBF8). Kind of assay: Inhibition of PI4KB ATP labeling site harbouring VPHTQAVVLNSKDK in human A-375 cells at 0.05 uM by KiNativ Profiling analysis relative to control. The format is cell-based.
Sequence of Phosphatidylinositol 4-kinase beta (Homo sapiens) (Q9UBF8 2-816 limits assumed): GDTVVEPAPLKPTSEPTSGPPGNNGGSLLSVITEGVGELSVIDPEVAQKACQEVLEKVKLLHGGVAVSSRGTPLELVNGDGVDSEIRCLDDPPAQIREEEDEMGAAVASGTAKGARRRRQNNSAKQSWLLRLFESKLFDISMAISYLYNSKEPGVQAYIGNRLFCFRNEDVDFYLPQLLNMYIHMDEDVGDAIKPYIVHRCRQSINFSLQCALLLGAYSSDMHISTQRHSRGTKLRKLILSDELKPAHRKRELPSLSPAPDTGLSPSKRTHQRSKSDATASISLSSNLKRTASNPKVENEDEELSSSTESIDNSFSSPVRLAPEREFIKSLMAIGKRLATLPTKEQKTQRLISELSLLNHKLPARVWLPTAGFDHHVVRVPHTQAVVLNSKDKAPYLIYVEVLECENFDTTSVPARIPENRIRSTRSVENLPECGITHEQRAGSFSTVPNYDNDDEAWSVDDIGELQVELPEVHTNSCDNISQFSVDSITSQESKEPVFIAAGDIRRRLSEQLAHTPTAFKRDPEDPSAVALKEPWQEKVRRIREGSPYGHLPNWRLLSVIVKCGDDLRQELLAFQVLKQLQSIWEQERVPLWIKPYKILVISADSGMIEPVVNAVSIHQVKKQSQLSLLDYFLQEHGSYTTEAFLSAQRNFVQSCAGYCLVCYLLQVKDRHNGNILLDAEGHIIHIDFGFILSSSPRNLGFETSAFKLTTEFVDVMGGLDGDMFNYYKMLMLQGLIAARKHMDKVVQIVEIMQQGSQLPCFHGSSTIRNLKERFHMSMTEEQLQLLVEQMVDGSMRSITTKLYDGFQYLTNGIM
For assay [5], the target named is T3, Aurora kinase A (Homo sapiens) (UniProt O14965).
T3 sequence (whole entry): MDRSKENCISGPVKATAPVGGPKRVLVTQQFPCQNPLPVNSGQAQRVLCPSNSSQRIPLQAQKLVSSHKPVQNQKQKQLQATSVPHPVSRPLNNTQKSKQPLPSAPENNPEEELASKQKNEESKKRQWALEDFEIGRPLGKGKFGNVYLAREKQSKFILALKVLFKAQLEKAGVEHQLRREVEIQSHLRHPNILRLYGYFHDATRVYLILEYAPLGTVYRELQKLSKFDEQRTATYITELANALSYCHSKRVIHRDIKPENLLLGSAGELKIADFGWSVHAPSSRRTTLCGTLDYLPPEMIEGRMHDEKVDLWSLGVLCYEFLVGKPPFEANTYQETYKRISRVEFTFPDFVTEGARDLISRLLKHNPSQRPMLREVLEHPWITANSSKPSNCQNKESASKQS
Kind of assay: Inhibition of AURKA (unknown origin) at 10 uM by Ambit Kinomescan binding assay.

In assay [6] the target is 5'-AMP-activated protein kinase catalytic subunit alpha-2 (Homo sapiens) (UniProt P54646). Kind of assay: Inhibition of AMPKa2 Lys1 labeling site in human Huh-7 cell lysate at 1 uM by KiNativ Profiling analysis relative to control. In kind it is subcellular.
Sequence of 5'-AMP-activated protein kinase catalytic subunit alpha-2 (Homo sapiens) (P54646 whole entry, looked up): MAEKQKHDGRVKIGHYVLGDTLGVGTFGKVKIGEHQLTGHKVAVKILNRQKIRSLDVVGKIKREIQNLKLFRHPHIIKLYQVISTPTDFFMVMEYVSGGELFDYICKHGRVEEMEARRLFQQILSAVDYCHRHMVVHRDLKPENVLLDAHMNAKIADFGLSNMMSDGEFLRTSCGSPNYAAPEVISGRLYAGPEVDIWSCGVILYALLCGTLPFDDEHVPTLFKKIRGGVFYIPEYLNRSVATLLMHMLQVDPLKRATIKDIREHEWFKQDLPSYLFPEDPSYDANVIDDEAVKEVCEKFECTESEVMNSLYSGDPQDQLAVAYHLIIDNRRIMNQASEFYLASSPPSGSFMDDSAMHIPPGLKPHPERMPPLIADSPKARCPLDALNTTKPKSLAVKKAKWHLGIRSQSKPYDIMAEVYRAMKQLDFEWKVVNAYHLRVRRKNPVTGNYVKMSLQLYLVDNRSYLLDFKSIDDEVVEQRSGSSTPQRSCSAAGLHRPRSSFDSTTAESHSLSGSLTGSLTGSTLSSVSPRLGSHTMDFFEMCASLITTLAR

On to `CCN1CCN(Cc2ccc(NC(=O)c3ccc(C)c(/C=C/c4cnc5[nH]ccc5c4OC)c3)cc2C(F)(F)F)CC1`, for which the inhibition in assay [1] is 100%; in assay [2] it was 80%; in assay [3], 1.4%; in assay [4], -10%.

On to `CCN1CCN(Cc2ccc(NC(=O)c3ccc(C)c(Oc4ccnc5[nH]ccc45)c3)cc2C(F)(F)F)CC1`, for which, in assay [5], the inhibition result is “inactive”.

Take `CNc1cc(Oc2cc(C(=O)Nc3cc(N4CCN(C)CC4)cc(C(F)(F)F)c3)ccc2C)ncn1`: the inhibition in assay [6] is 8.7%.
